Patent US20070049592A1, “Bis-aryl urea compounds and methods of use” (priority 2005, published 2007)

Test system: Human Umbilical Vein Endothelial cells
Test: HUVEC proliferation assay (VEGF)
Format: cell-based
Conditions: VEGF-stimulated HUVEC proliferation
Procedure: Human Umbilical Vein Endothelial cells are purchased from Clonetics, Inc., as cryopreserved cells harvested from a pool of donors. These cells, at passage 1, are thawed and expanded in EBM-2 complete medium, until passage 2 or 3. The cells are trypsinized, washed in DMEM+10% FBS+antibiotics, and spun at 1000 rpm for 10 min. Prior to centrifugation of the cells, a small amount is collected for a cell count. After centrifugation, the medium is discarded, and the cells are resuspended in the appropriate volume of DMEM+10% FBS+antibiotics to achieve a concentration of 3×10^5 cells/mL. Another cell count is performed to confirm the cell concentration. The cells are diluted to 3×10^4 cells/mL in DMEM+10% FBS+antibiotics, and 100 μL of cells are added to a 96-well plate. The cells are incubated at 37° C. for 22 h.
Prior to the completion of the incubation period, compound dilutions are prepared. Five-point, five-fold serial dilutions are prepared in DMSO, at concentrations 400-fold greater than the final concentrations desired. 2.5 μL of each compound dilution are diluted further in a total of 1 mL DMEM+10% FBS+antibiotics (400× dilution). Medium containing 0.25% DMSO is also prepared for the 0 μM compound sample. At the 22 h timepoint, the medium is removed from the cells, and 100 μL of each compound dilution is added. The cells are incubated at 37° C. for 2-3 h.
During the compound pre-incubation period, the growth factors are diluted to the appropriate concentrations. Solutions of DMEM+10% FBS+antibiotics, containing either VEGF or bFGF at the following concentrations: 50, 10, 2, 0.4, 0.08, and 0 ng/mL are prepared. For the compound-treated cells, solutions of VEGF at 550 ng/mL or bFGF at 220 ng/mL for 50 ng/mL or 20 ng/mL final concentrations, respectively, are prepared since 10 μL of each will be added to the cells (110 μL final volume). At the appropriate time after adding the compounds, the growth factors are added. VEGF is added to one set of plates, while bFGF is added to another set of plates. For the growth factor control curves, the media on wells B4-G6 of plates 1 and 2 are replaced with media containing VEGF or bFGF at the varying concentrations (50-0 ng/mL). The cells are incubated at 37° C. for an additional 72 h.
At the completion of the 72 h incubation period, the medium is removed, and the cells are washed twice with PBS. After the second wash with PBS, the plates are tapped gently to remove excess PBS, and the cells are placed at −70° C. for at least 30 min. The cells are thawed and analyzed using the CyQuant fluorescent dye (Molecular Probes C-7026), following the manufacturer's recommendations. The plates are read on a Victor/Wallac 1420 workstation at 485 nm/530 nm (excitation/emission). Raw data is collected and analyzed using a 4-parameter fit equation in XLFit. IC50 values are then determined.

| SMILES | IC50 [µM] |
| --- | --- |
| CNc1cc(N(C)C(=O)Nc2cc(C(=O)Nc3ccc(C(C)C)c(C)c3)ccc2C)ncn1 [Example 19] | < 5 |
| CNc1cc(N(C)C(=O)Nc2cc(C(=O)Nc3ccc4c(c3)N(C(C)=O)CC4(C)C)ccc2C)ncn1 [Example 21, N-(1-acetyl-3,3-dimethyl-2,3-dihydro-1H-indol-6-yl)-4-methyl-3-(((methyl(6-(methylamino)-4-pyrimidinyl)amino)carbonyl)amino)benzamide] | < 5 |
| Cc1ccc(C(=O)Nc2cccc(C(C)C)c2)cc1NC(=O)N(CCCN1CCOCC1)c1ccncn1 [Example 22, 4-methyl-N-(3-(1-methylethyl)phenyl)-3-((((3-(4-morpholinyl)propyl)(4-pyrimidinyl)amino)carbonyl)amino)benzamide] | < 5 |
| CNc1cc(N(C)C(=O)Nc2cc(C(=O)Nc3cccc(N(C)C)c3)ccc2C)ncn1 [Example 26, N-(3-(dimethylamino)phenyl)-4-methyl-3-((methyl(6-(methylamino)-4-pyrimidinyl)amino)carbonylamino)benzamide] | < 5 |
| CNc1ncnc(N(C)C(=O)Nc2cc(C(=O)Nc3ccc(C(C)(C)C)cc3)ccc2C)n1 [Example 27, N-(4-1,1-(dimethylethyl)phenyl)-4-methyl-3-(((methyl(4-(methylamino)-1,3,5-triazin-2-yl)amino)carbonyl)amino)benzamide] | < 5 |
| CNc1ncnc(N(C)C(=O)Nc2cc(C(=O)Nc3cccc(N(C)C)c3)ccc2C)n1 [Example 28] | < 5 |
| CNc1nccc(N(CCCN2CCOCC2)C(=O)Nc2cc(C(=O)Nc3cccc(C(C)C)c3)ccc2C)n1 [Example 29, 4-methyl-3-((((2-(methylamino)-4-pyrimidinyl) (3-(4-morpholinyl)propyl)amino)carbonyl)amino)-N-(3-(1-methylethyl)phenyl)benzamide] | < 5 |
| CNc1cc(N(C)C(=O)Nc2cc(C(=O)Nc3ccc4sc(C)nc4c3)ccc2C)ncn1 [Example 33, 4-methyl-N-(2-methyl-1,3-benzothiazol-5-yl)-3-(((methyl(6-(methylamino)-4-pyrimidinyl)amino)carbonyl)amino)benzamide] | < 5 |
| CNc1cc(N(C)C(=O)Nc2cc(C(=O)Nc3cc(C(F)(F)F)ccc3OCCN3CCCC3)ccc2C)ncn1 [Example 34, 4-methyl-3-(((methyl(6-(methylamino)-4-pyrimidinyl)amino)carbonyl)amino)-N-(2-((2-(1-pyrrolidinyl)ethyl)oxy)-5-(trifluoromethyl)phenyl)benzamide] | < 5 |
| CNc1ncnc(N(C)C(=O)Nc2cc(C(=O)Nc3ccc4sc(C)nc4c3)ccc2C)n1 [Example 35, 4-methyl-N-(2-methyl-1,3-benzothiazol-5-yl)-3-(((methyl(4-(methylamino)-1,3,5-triazin-2-yl)amino)carbonyl)amino)benzamide] | < 5 |
| CNc1ncnc(N(C)C(=O)Nc2cc(C(=O)Nc3cc(OC)cc(C(F)(F)F)c3)ccc2C)n1 [Example 36, 4-methyl-3-(((methyl(4-(methylamino)-1,3,5-triazin-2-yl)amino)carbonyl)amino)-N-(3-(methyloxy)-5-(trifluoromethyl)phenyl)benzamide] | < 5 |
| CNc1ncnc(N(C)C(=O)Nc2cc(C(=O)Nc3cccc(C(F)(F)F)c3C)ccc2C)n1 [Example 37, 4-methyl-3-(((methyl(4-(methylamino)-1,3,5-triazin-2-yl)amino)carbonyl)amino)-N-(2-methyl-3-(trifluoromethyl)phenyl)benzamide] | < 5 |
| CNc1ncnc(N(C)C(=O)Nc2cc(C(=O)Nc3ccc(C(C)C)c(C)c3)ccc2C)n1 [Example 38, 4-methyl-3-(((methyl(4-(methylamino)-1,3,5-triazin-2-yl)amino)carbonyl)amino)-N-(3-methyl-4-(1-methylethyl)phenyl)benzamide] | < 5 |
| CNc1ncnc(N(C)C(=O)Nc2cc(C(=O)Nc3cccc(-c4ccccc4)c3)ccc2C)n1 [Example 39, N-(1,1′-biphenyl-3-yl)-4-methyl-3-(((methyl(4-(methylamino)-1,3,5-triazin-2-yl)amino)carbonyl)amino)benzamide] | < 5 |
| CNc1cc(N(C)C(=O)Nc2cc(C(=O)Nc3ccc(Cl)cc3)ccc2C)ncn1 [Example 40, N-(4-chlorophenyl)-4-methyl-3-(((methyl(6-(methylamino)-4-pyrimidinyl)amino)carbonyl)amino)benzamide] | < 5 |
| CNc1cc(N(C)C(=O)Nc2cc(C(=O)Nc3ccccc3)ccc2C)ncn1 [Example 41, 4-methyl-3-(((methyl(6-(methylamino)-4-pyrimidinyl)amino)carbonyl)amino)-N-phenylbenzamide] | < 5 |
| CCCCNC(=O)c1ccc(C)c(NC(=O)N(C)c2cc(NC)ncn2)c1 [Example 42, N-butyl-4-methyl-3-(((methyl(6-(methylamino)-4-pyrimidinyl)amino)carbonyl)amino)benzamide] | < 5 |
| CNc1cc(N(C)C(=O)Nc2cc(C(=O)Nc3cc(C4CCCCC4)ccc3OC)ccc2C)ncn1 [Example 43, N-(5-cyclohexyl-2-(methyloxy)phenyl)-4-methyl-3-(((methyl(6-(methylamino)-4-pyrimidinyl)amino)carbonyl)amino)benzamide] | < 5 |
| CNc1ncnc(N(C)C(=O)Nc2cc(C(=O)Nc3ccccc3)ccc2C)n1 [Example 44, 4-methyl-3-(((methyl(4-(methylamino)-1,3,5-triazon-2-yl)amino)carbonyl)amino)-N-phenylbenzamide] | < 5 |
| CNc1cc(N(C)C(=O)Nc2cc(C(=O)NCc3ccccc3)ccc2C)ncn1 [Example 45, 4-methyl-3-(((methyl(6-(methylamino)-4-pyrimidinyl)amino)carbonyl)amino)-N-(phenylmethyl) benzamide] | < 5 |
| COc1ccc(C2CCCCC2)cc1NC(=O)c1ccc(C)c(NC(=O)N(CCCN2CCOCC2)c2ccncn2)c1 [Example 46, N-(5-cyclohexyl-2-(methyloxy)phenyl)-4-methyl-3-((((3-(4-morpholinyl)propyl)(4-pyrimidinyl)amino)carbonyl)amino)benzamide] | < 5 |
| CNc1ncnc(N(C)C(=O)Nc2cc(C(=O)Nc3ccc(Cl)cc3)ccc2C)n1 [Example 47, N-(4-chlorophenyl)-4-methyl-3-(((methyl(4-(methylamino)-1,3,5-triazin-2-yl)amino)carbonyl)amino) benzamide] | < 5 |
| CCCCNC(=O)c1ccc(C)c(NC(=O)N(C)c2ncnc(NC)n2)c1 [Example 48, N-butyl-4-methyl-3-(((methyl(4-(methylamino)-1,3,5-triazin-2-yl)amino)carbonyl)amino)benzamide] | < 5 |
| CNc1ncnc(N(C)C(=O)Nc2cc(C(=O)NCc3ccccc3)ccc2C)n1 [Example 49, 4-methyl-3-(((methyl(4-(methylamino)-1,3,5-triazin-2-yl)amino)carbonyl)amino)-N-(phenylmethyl) benzamide] | < 5 |
| CNc1nccc(N(CCCN2CCOCC2)C(=O)Nc2cc(C(=O)Nc3cc(C4CCCCC4)ccc3OC)ccc2C)n1 [Example 50, N-(5-cyclohexyl-2-(methyloxy)phenyl)-4-methyl-3-((((2-(methylamino)-4-pyrimidinyl)(3-(4-morpholinyl)propyl)amino)carbonyl)amino) benzamide] | < 5 |
| CNC(=O)c1cc(N(C)C(=O)Nc2cc(C(=O)N3CCCc4ccc(C(F)(F)F)cc43)ccc2C)ccn1 [Example 71, N-methyl-4-(methyl(((2-methyl-5-((7-(trifluoromethyl)-3,4-dihydro-1(2H)-quinolinyl)carbonyl)phenyl)amino)carbonyl)amino)-2-pyridinecarboxamide] | < 5 |
